A word on the EC50: it is the concentration needed to bring the measured effect to its halfway point. The low end stands for a more potent agent, the high end for a less potent agent.

The values that follow come from ChEMBL document CHEMBL1147472, “Design, synthesis, and evaluation of a new class of noncyclic 1,3-dicarbonyl compounds as PPARalpha selective activators” (Bioorg Med Chem Lett, 2004).

The target in experiment [1] is T1, Peroxisome proliferator-activated receptor delta (Homo sapiens, UniProt Q03181).
T1 sequence (Q03181 whole entry): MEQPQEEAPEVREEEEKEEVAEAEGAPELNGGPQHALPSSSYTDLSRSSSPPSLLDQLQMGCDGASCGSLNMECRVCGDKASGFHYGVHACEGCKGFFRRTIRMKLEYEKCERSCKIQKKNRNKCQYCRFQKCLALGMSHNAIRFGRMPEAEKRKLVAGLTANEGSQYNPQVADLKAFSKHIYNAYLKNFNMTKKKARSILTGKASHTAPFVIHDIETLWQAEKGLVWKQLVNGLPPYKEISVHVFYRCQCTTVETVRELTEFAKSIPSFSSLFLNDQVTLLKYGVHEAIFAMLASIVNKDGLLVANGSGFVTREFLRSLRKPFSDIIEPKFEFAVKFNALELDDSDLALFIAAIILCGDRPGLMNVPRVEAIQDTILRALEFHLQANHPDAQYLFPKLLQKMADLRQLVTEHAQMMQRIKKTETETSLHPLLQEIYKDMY
Kind of experiment: In vitro transcription activation on human peroxisome proliferator activated receptor-delta (PPAR delta); Inactive.

The target in experiment [2] is T2, Peroxisome proliferator-activated receptor alpha (Homo sapiens, UniProt Q07869).
T2 sequence (Q07869 whole entry): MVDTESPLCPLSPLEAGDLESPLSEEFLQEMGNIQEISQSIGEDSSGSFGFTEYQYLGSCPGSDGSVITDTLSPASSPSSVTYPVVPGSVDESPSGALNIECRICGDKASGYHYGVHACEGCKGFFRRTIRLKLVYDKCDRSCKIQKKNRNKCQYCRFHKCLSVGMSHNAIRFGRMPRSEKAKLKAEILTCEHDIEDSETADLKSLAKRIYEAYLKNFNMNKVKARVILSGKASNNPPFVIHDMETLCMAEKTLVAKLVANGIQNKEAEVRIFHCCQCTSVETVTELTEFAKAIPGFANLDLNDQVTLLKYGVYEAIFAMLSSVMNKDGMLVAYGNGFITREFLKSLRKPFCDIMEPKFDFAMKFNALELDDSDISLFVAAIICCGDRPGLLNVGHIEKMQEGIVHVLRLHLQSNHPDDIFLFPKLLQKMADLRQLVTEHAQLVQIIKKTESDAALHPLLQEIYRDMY
Put plainly: In vitro transcription activation on human peroxisome proliferator activated receptor-alpha (PPAR alpha); Inactive.

In experiment [3] the target is T3, Peroxisome proliferator-activated receptor gamma (Homo sapiens, UniProt P37231).
T3 sequence (P37231 whole entry): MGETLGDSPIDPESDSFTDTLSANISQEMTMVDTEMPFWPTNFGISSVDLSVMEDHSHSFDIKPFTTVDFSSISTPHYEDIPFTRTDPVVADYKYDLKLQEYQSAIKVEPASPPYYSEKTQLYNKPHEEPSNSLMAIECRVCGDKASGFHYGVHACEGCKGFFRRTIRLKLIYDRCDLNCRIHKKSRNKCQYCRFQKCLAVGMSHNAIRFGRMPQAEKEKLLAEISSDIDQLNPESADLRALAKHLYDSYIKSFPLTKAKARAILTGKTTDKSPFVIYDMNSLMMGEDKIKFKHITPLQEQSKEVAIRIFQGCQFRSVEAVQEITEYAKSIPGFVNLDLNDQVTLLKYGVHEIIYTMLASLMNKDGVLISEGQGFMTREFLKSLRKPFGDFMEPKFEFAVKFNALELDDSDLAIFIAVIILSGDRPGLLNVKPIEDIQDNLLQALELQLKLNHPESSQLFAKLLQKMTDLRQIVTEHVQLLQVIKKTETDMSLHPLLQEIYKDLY

Experiment [4] deals with T3, Peroxisome proliferator-activated receptor gamma. Put plainly: In vitro transcription activation on human peroxisome proliferator activated receptor-gamma (PPAR gamma).
In experiment [5] the target is T1, Peroxisome proliferator-activated receptor delta. Kind of experiment: In vitro transcription activation on human peroxisome proliferator activated receptor-delta (PPAR delta).
The target is the same in experiment [6]. Put plainly: In vitro transcriptional activation by human peroxisome proliferator activated receptor-delta (PPAR delta; Inactive.
Experiment [7] addresses T2, Peroxisome proliferator-activated receptor alpha. Kind of experiment: (§1) In vitro transcription activation on human peroxisome proliferator activated receptor-alpha (PPAR alpha).
Experiment [8] concerns the target T4, Peroxisome proliferator-activated receptor alpha (Homo sapiens) (UniProt Q07869).
T4 sequence (whole entry): T2 sequence (Q07869 whole entry)
The experiment is described as §1.

The test system of experiment [9] is Mus musculus. Put plainly: In vivo effect on blood glucose level in mice at a dose of 10 mg/kg by oral administration after two week. The format is functional.
Experiment [10] has as its system Mus musculus. Kind of experiment: In vivo effect on blood glucose level in mice at a dose of 30 mg/kg by oral administration after two week. Type of experiment: functional.
Experiment [11] deals with Mus musculus. Put plainly: In vivo effect on blood glucose level in mice at a dose of 20 mg/kg by oral administration after two week. Type of experiment: functional.
For experiment [12], the system named is Mus musculus. Kind of experiment: In vivo effect on blood glucose level in mice at the dose of 5 mg/kg by oral administration after two week. Type of experiment: functional.

Regarding `CC1(C)CCC(C)(C)c2cc(OCCOc3ccc(CC(C(N)=O)C(=O)O)cc3)ccc21` (configuration not stated), the half-maximal effective concentration (EC50) entry in [1], in experiment [2] and in experiment [3] was “Not Active” in each case.
Consider `COC(=O)C(Cc1ccc(OCCOc2ccc3c(c2)C(C)(C)CCC3(C)C)cc1)C(N)=O` (configuration not stated), for which the EC50 result is “Not Active” in experiment [1], 0.83 µM in [4] and “Not Active” in [2].
In the case of `Cc1oc(-c2ccccc2)nc1CCOc1ccc(CC2C(=O)NOC2=O)cc1` (configuration not stated) [REGLITAZAR], in [1], the EC50 entry is on record as “Not Active”.
For the molecule `COC(=O)C(Cc1ccc(OCCOc2ccc3c(c2)CCCC3)cc1)C(N)=O` (configuration not stated), the EC50 entry was “Not Active” in experiment [1], 3.43 µM in experiment [4] and “Not Active” in experiment [2].
Turning to `COC(=O)C(Cc1ccc(OCCOc2ccc3c(c2)CCCC3)cc1)C(=O)O` (configuration not stated), the EC50 in experiment [4] was 0.69 µM; in [2], “Not Active”; in experiment [5], 2.45 µM.
Consider `O=C(O)C(Cc1ccc(OCCOc2ccc3ccccc3c2)cc1)C(=O)O`, for which the EC50 result in experiment [2], in experiment [3] and in [6] was “Not Active” in each case.
As for `COC(=O)C(Cc1ccc(OCCOc2ccc3ccccc3c2)cc1)C(=O)OC`, the EC50 turned out to be 0.07 µM in [7], 0.53 µM in experiment [4] and 1.27 µM in [5]. Further, the Max response in [8] came out at 264%. The values for the Reduction with Mus musculus [9] and in the experiment with Mus musculus [10] were 35.08% and 46.76%, respectively.
`COC(=O)C(Cc1ccc(OCCOc2ccc3c(c2)C(C)(C)CCC3(C)C)cc1)C(=O)O` (configuration not stated): the values for the 50% effective concentration (EC50) result in experiment [1], in experiment [4] and in [2] were “Not Active”, 0.09 µM and “Not Active”, respectively.
With `NC(=O)C(Cc1ccc(OCCOc2ccc3ccccc3c2)cc1)C(=O)O` (configuration not stated), the figures for the EC50 in experiment [7], in [4] and in experiment [5] were 0.25 µM, 3.02 µM and 2.63 µM, respectively. In experiment [8], this molecule came in with a Max response of 213%. Besides, in the experiment with Mus musculus [11], the Reduction came to 42.22%.
Consider `CCCCCCCCCCCCCCC(Br)C(=O)O` (configuration not stated), for which a half-maximal effect in experiment [5] (EC50) was put at 3.72 µM.
For the molecule `COC(=O)C(Cc1ccc(OCCOc2ccc3c(c2)CCCC3)cc1)C(=O)OC`, the concentration giving a half-maximal response (EC50) came out at 0.03 µM in experiment [7], 1.5 µM in experiment [4] and 3.31 µM in experiment [5]. In experiment [8], this molecule returned a Max response of 210%. This molecule showed a Reduction with Mus musculus [10] of 38.15%.
On to `COC(=O)C(Cc1ccc(OCCOc2ccc3c(c2)NCCC3)cc1)C(=O)OC`, for which the EC50 in experiment [7] was 0.17 µM; in experiment [4], 3.16 µM; in experiment [5], 3.16 µM. Further, the Max response in experiment [8] was 215%.
As to `CC1(C)CCC(C)(C)c2cc(OCCOc3ccc(CC(C(=O)O)C(=O)O)cc3)ccc21`, the concentration for a half-maximal effect (EC50) result in [1] was “Not Active”; in experiment [4] it was 2.05 µM; in experiment [2] it was “Not Active”.
Consider `COC(=O)C(Cc1ccc(OCCOc2ccc3ccccc3c2)cc1)C(=O)O` (configuration not stated), for which the values for the EC50 in experiment [7], in [4] and in [5] were 0.044 µM, 1.12 µM and 1.05 µM, respectively. The molecule also gave a Max response in experiment [8] of 264%.
In the case of `O=C(O)C(Cc1ccc(OCCOc2ccc3c(c2)NCCC3)cc1)C(=O)O`, the concentration for a half-maximal effect (EC50) result in [1], in [2] and in [3] was “Not Active” throughout.
In [8], `Cc1cccc(Nc2cc(Cl)nc(SCC(=O)O)n2)c1C` [PIRINIXIC ACID] had a Max response of 100%. The EC50 entry in [3] is given as “Not Active”.
Regarding `COC(=O)C(Cc1ccc(OCCOc2ccc3c(c2)NCCC3)cc1)C(=O)O` (configuration not stated), the half-maximal effective concentration (EC50) in experiment [7] stood at 0.09 µM; in [4], 3.8 µM; in [5] it was 3.09 µM. The molecule further returned a Max response in experiment [8] of 207%.
With `CN(CCOc1ccc(CC2SC(=O)NC2=O)cc1)c1ccccn1` (configuration not stated) [ROSIGLITAZONE], the Reduction in the experiment on Mus musculus [12] is given as 62.96%.
For `O=C(O)C(Cc1ccc(OCCOc2ccc3c(c2)CCCC3)cc1)C(=O)O`, the figures for the concentration giving a half-maximal response (EC50) in experiment [4], in [2] and in [5] were 2.11 µM, “Not Active” and 4.68 µM, respectively.
With `COC(=O)C(Cc1ccc(OCCOc2ccc3c(c2)C(C)(C)CCC3(C)C)cc1)C(=O)OC`, the figures for the EC50 entry in [1], in experiment [4] and in [2] were “Not Active”, 0.15 µM and “Not Active”, respectively.
With `NC(=O)C(Cc1ccc(OCCOc2ccc3c(c2)NCCC3)cc1)C(=O)O` (configuration not stated), the values for the EC50 in [7], in experiment [4] and in experiment [5] were 0.14 µM, 2.88 µM and 3.62 µM, respectively. The molecule also registered a Max response in experiment [8] of 210%.
